Here are results for 13 compounds from ChEMBL document CHEMBL1201862, “PubChem BioAssay data set” (2004).

Among the test systems are HOP-92; M14; SF-539; SF-268; HCT-116; TK-10; HCC 2998; EKVX; DMS-114; KM12; HT-29; SK-MEL-2; SK-MEL-5; OVCAR-5; UACC-62; SR; MCF7; BT-549; DU-145; MDA-MB-231.
Common to all, as to experiment: inhibition of tumour cell growth, NCI panel, 48 h

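96-well plates; 48 h exposure; 5 concentrations. Endpoints by linear interpolation between flanking doses. Not reached: highest tested concentration assigned. GI50: concentration for 50% inhibition of growth.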 The source made the active and inactive calls. Rule as the data show it: active = GI50 up to about 1.1 µM and inactive = higher. Bounds are passed on as bounds.

As for `N#C/C(=C\c1c(O)cc(O)cc1O)C(N)=O`, the GI50 in the experiment on HOP-92, in the experiment on M14, with SF-539, in the experiment with SF-268, with HCT-116 and in the experiment on TK-10 was > 100 µM (inactive) throughout. In addition, the GI50 in the experiment on HCC 2998, in the experiment with EKVX, in the experiment with DMS-114, in the experiment with KM12, in the experiment with HT-29 and with SK-MEL-2 was > 100 µM (inactive) throughout. Besides, the GI50 in the experiment with SK-MEL-5 and with OVCAR-5 was > 100 µM (inactive) each time.
Consider `Cc1c(C(=O)CC(=O)C(=O)Nc2ccc(Cl)c(Cl)c2)[n+]([O-])c2ccccc2[n+]1[O-]`, for which the GI50 in the experiment on HOP-92 was 27.5 µM (inactive); in the experiment with M14 it was 18.1 µM (inactive); in the experiment on SF-539 it was 26.9 µM (inactive); with SF-268, 29.1 µM (inactive); in the experiment with HCT-116, 19 µM (inactive); with TK-10 it was 46.5 µM (inactive). Further, the GI50 with HCC 2998 is 33 µM (inactive); with EKVX, 12.5 µM (inactive); in the experiment on DMS-114, 16.9 µM (inactive); in the experiment with KM12, 25.1 µM (inactive); in the experiment with HT-29, 29.9 µM (inactive); in the experiment with UACC-62 it was 17.3 µM (inactive). In addition, the GI50 in the experiment on SK-MEL-2 was 26.9 µM (inactive); with SK-MEL-5 it was 19.5 µM (inactive); in the experiment with OVCAR-5, 36.4 µM (inactive).
In the case of `Cc1cc(O)c2c3c1C(=O)Oc1c(CO)c(O)c(C(=O)O)c(c1O3)C=NN=Cc1c3c(c(CO)c(O)c1C(=O)O)OC(=O)c1c(C)cc(O)c(c1O3)C=NN=C2`, the GI50 with HOP-92, in the experiment with M14, in the experiment on SF-539, in the experiment on SF-268, with HCT-116 and in the experiment on TK-10 was > 100 µM (inactive) in each case. Also, the GI50 in the experiment on HCC 2998 is > 100 µM (inactive); in the experiment on EKVX, > 100 µM (inactive); with DMS-114 it was 51.5 µM (inactive); in the experiment with KM12, 48.6 µM (inactive); with HT-29 it was > 100 µM (inactive); in the experiment with UACC-62, > 100 µM (inactive). Also, the GI50 is 40.2 µM (inactive) in the experiment on SK-MEL-5 and > 100 µM (inactive) in the experiment on OVCAR-5.
`Cc1cc(Cl)cc2c1NC(=O)C2(O)CC(=O)c1ccc(Br)cc1` (stereo unspecified): the GI50 was 94.4 µM (inactive) with HOP-92; 52 µM (inactive) in the experiment on M14; 48.3 µM (inactive) in the experiment on SF-539; > 77.8 µM (inactive) in the experiment with SF-268; 56.9 µM (inactive) with HCT-116; > 73.8 µM (inactive) in the experiment on TK-10. Moreover, the GI50 in the experiment on HCC 2998 is > 100 µM (inactive); in the experiment with EKVX, 59.4 µM (inactive); with DMS-114, 34.8 µM (inactive); in the experiment on KM12, 46.9 µM (inactive); with HT-29 it was 49.9 µM (inactive); in the experiment on UACC-62 it was 21.6 µM (inactive). Also, the GI50 in the experiment on SK-MEL-2 is > 100 µM (inactive); in the experiment on SK-MEL-5, 25 µM (inactive); in the experiment with OVCAR-5, > 100 µM (inactive).
As to `O/N=C1/C(=C/c2ccc(Cl)c(Cl)c2)CCCC1C(NO)c1ccc(Cl)c(Cl)c1` (stereo unspecified), the GI50 in the experiment on M14 was 17.4 µM (inactive); in the experiment on SF-539, 18.1 µM (inactive); with SF-268, 23.5 µM (inactive); in the experiment with HCT-116, 16.2 µM (inactive); in the experiment with TK-10, 19.8 µM (inactive); in the experiment with HCC 2998 it was 17.1 µM (inactive). Moreover, the GI50 in the experiment on EKVX is 21.9 µM (inactive); with DMS-114, 17.9 µM (inactive); in the experiment on KM12, 18 µM (inactive); in the experiment with HT-29 it was 16.7 µM (inactive); in the experiment with UACC-62, 18 µM (inactive); in the experiment with SK-MEL-2, 17.4 µM (inactive). The GI50 with SK-MEL-5 is 18.5 µM (inactive).
Turning to `COc1ccc([N+]2=NC(c3ccc([N+](=O)[O-])cc3)=NN(c3ccccc3)C2)cc1.[O-][Cl+3]([O-])([O-])[O-]`, the GI50 with SF-268 was > 100 µM (inactive); in the experiment with HCT-116, 65.5 µM (inactive); with TK-10, > 100 µM (inactive); with HCC 2998 it was > 100 µM (inactive); in the experiment on EKVX, 91.2 µM (inactive); in the experiment with DMS-114, 40.6 µM (inactive). The GI50 with KM12 is 90.2 µM (inactive); with HT-29 it was 62.7 µM (inactive); with SK-MEL-5 it was 28.4 µM (inactive); in the experiment with OVCAR-5, > 100 µM (inactive); in the experiment with SR, 44.2 µM (inactive).
For `CSc1ncnc2c1ncn2C1CC(Oc2ccc(C)cc2)C(COc2ccc(C)cc2)O1` (stereo unspecified), the GI50 in the experiment with HOP-92, in the experiment on MCF7, in the experiment on M14, in the experiment with BT-549, in the experiment with DU-145 and with SF-539 was > 100 µM (inactive) each time. In addition, the GI50 with SF-268, with HCT-116, in the experiment on TK-10, with HCC 2998, in the experiment on MDA-MB-231 and in the experiment with EKVX was > 100 µM (inactive) in each case. The GI50 with KM12 was > 100 µM (inactive); with HT-29, > 100 µM (inactive); in the experiment on UACC-62 it was > 100 µM (inactive); with SK-MEL-2, > 100 µM (inactive); in the experiment with SK-MEL-5 it was 52.2 µM (inactive); in the experiment with OVCAR-5 it was > 100 µM (inactive). The GI50 in the experiment on SR is 76.6 µM (inactive).
For `COC(=O)c1nc2n(n1)-c1ccccc1C(=O)N(Cc1ccccc1)C2`, the GI50 with HOP-92, in the experiment on MCF7, in the experiment on M14, in the experiment with BT-549, in the experiment with DU-145 and in the experiment with SF-539 was > 100 µM (inactive) in each case. Besides, the GI50 in the experiment on SF-268 is > 100 µM (inactive); in the experiment on HCT-116, > 100 µM (inactive); in the experiment on TK-10, > 100 µM (inactive); with HCC 2998 it was 40.4 µM (inactive); in the experiment on MDA-MB-231, > 100 µM (inactive); with EKVX, > 100 µM (inactive). Moreover, the GI50 in the experiment on KM12, in the experiment with HT-29, in the experiment with UACC-62, in the experiment with SK-MEL-2, in the experiment on SK-MEL-5 and with OVCAR-5 was > 100 µM (inactive) throughout. Besides, the GI50 in the experiment with SR was > 100 µM (inactive).
As to `COc1cccc2c1C(=O)c1c(O)c3c(c(O)c1C2=O)CC(O)(C(=O)CO)CC3OC1CC(N2CCOCC2C#N)C(O)C(C)O1` (stereo unspecified), the GI50 with HOP-92, in the experiment with MCF7, in the experiment on M14, with BT-549, with DU-145 and in the experiment with SF-539 was < 0.0001 µM (active) in each case. The GI50 with SF-268 is > 0.01 µM (active); in the experiment with HCT-116 it was < 0.0001 µM (active); with TK-10 it was < 0.0001 µM (active); with HCC 2998, < 0.0001 µM (active); with MDA-MB-231 it was < 0.0001 µM (active); in the experiment with EKVX, < 0.0001 µM (active). For the same compound, the GI50 with KM12, in the experiment on HT-29, with UACC-62, with SK-MEL-2, in the experiment on SK-MEL-5 and in the experiment with OVCAR-5 was < 0.0001 µM (active) throughout. The GI50 with SR is < 0.0001 µM (active).
In the case of `CC1=C(C(=O)Nc2cc(=O)n(C)c(=O)n2C)C(c2cccc([N+](=O)[O-])c2)C(C(=O)Nc2cc(=O)n(C)c(=O)n2C)=C(C)N1`, the GI50 is 58.7 µM (inactive) with HOP-92; > 100 µM (inactive) in the experiment on M14; 26.7 µM (inactive) with SF-539; > 100 µM (inactive) in the experiment on SF-268; > 100 µM (inactive) in the experiment with TK-10; 31.5 µM (inactive) in the experiment on HCC 2998. Also, the GI50 was 15.9 µM (inactive) with EKVX; 80.5 µM (inactive) with DMS-114; > 100 µM (inactive) with KM12; > 100 µM (inactive) with HT-29; > 100 µM (inactive) in the experiment with SK-MEL-2; 74.6 µM (inactive) with SK-MEL-5. In addition, the GI50 in the experiment with OVCAR-5 is > 100 µM (inactive).
With `O=C1N[C@H](Cc2c[nH]cn2)C(=O)N2CCC[C@@H]12`, the GI50 with HOP-92, with M14, in the experiment with SF-268, with TK-10, with HCC 2998 and with EKVX was > 100 µM (inactive) throughout. For the same compound, the GI50 with DMS-114, with KM12, in the experiment on UACC-62, with SK-MEL-2, in the experiment on SK-MEL-5 and in the experiment on OVCAR-5 was > 100 µM (inactive) each time.
Regarding `COc1ccccc1/C=C/C(=O)c1sc(-c2cccnc2)nc1C`, the GI50 in the experiment on HOP-92, in the experiment with SF-539, in the experiment on SF-268, with TK-10, in the experiment on HCC 2998 and with EKVX was > 100 µM (inactive) in each case. Besides, the GI50 with DMS-114 is > 100 µM (inactive); with KM12, 65.2 µM (inactive); in the experiment with HT-29 it was > 100 µM (inactive); with UACC-62, > 100 µM (inactive); in the experiment on SK-MEL-2, > 100 µM (inactive); in the experiment with SK-MEL-5, 47.3 µM (inactive). The GI50 in the experiment with OVCAR-5 is > 100 µM (inactive).
For the compound `N#Cc1c(O)nc2[nH]nc(/N=N\c3c(O)ccc4ccccc34)c2c1-c1ccc(Cl)cc1`, the GI50 in the experiment with HOP-92 was 0.234 µM (active); with MCF7, 0.147 µM (active); in the experiment on M14, 0.188 µM (active); in the experiment with BT-549, 0.0826 µM (active); with DU-145, 0.17 µM (active); with SF-539 it was 0.29 µM (active). Moreover, the GI50 in the experiment with SF-268 was 0.0682 µM (active); with HCT-116, 0.114 µM (active); with TK-10, 0.108 µM (active); in the experiment on HCC 2998, 0.359 µM (active); with MDA-MB-231 it was 0.23 µM (active); with EKVX, 0.219 µM (active). Moreover, the GI50 with KM12 is 0.403 µM (active); in the experiment on HT-29 it was 0.123 µM (active); in the experiment with UACC-62, 0.103 µM (active); with SK-MEL-2, 0.202 µM (active); with SK-MEL-5, 0.369 µM (active); with OVCAR-5, 0.834 µM (active). Also, the GI50 with SR was 0.255 µM (active).
